Assay results: PubChem BioAssay AID330 (DTP/NCI, 2004)
Where “and” joins values, the source holds several entries; their conditions need not be identical. Equal values may be shown once. Toxic doses and inconclusive results are not listed.

Tested on: P388 leukemia ip, CD2F1 mice, survival T/C
Experiment: NCI In Vivo Anticancer Drug Screen. Data for tumor model P388 Leukemia (intraperitoneal) in CD2F1 (CDF1) mice
Conditions: endpoint: median survival time, higher = longer survival
Procedure, shortened: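 Mice carrying the transplanted tumor received test compound or vehicle. Survival was recorded in each group, and the value is the treated-group measurement divided by that of the vehicle-treated control group.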

[1] = dose: 50.0 mg/kg/injection, schedule: Q01DX005 (ip), vehicle: Klucel (hydroxypropylcellulose) (HPC)
[2] = dose: 100.0 mg/kg/injection, schedule: Q01DX005 (ip), vehicle: Klucel (hydroxypropylcellulose) (HPC)
[3] = dose: 200.0 mg/kg/injection, schedule: Q01DX005 (ip), vehicle: Klucel (hydroxypropylcellulose) (HPC)
[4] = dose: 50.0 mg/kg/injection, schedule: Q01DX005 (ip), vehicle: saline with Tween-80
[5] = dose: 100.0 mg/kg/injection, schedule: Q01DX005 (ip), vehicle: saline with Tween-80
[6] = dose: 200.0 mg/kg/injection, schedule: Q01DX005 (ip), vehicle: saline with Tween-80
[7] = dose: 6.25 mg/kg/injection, schedule: Q01DX009 (ip), vehicle: saline with Tween-80
[8] = dose: 25.0 mg/kg/injection, schedule: Q01DX005 (ip), vehicle: saline with Tween-80
[9] = dose: 60.0 mg/kg/injection, schedule: Q01DX005 (ip), vehicle: saline
[10] = dose: 120.0 mg/kg/injection, schedule: Q01DX005 (ip), vehicle: saline
[11] = dose: 100.0 mg/kg/injection, schedule: Q04DX003 (ip), vehicle: saline
[12] = dose: 200.0 mg/kg/injection, schedule: Q04DX003 (ip), vehicle: saline
[13] = dose: 100.0 mg/kg/injection, schedule: Q04DX003 (ip), vehicle: saline with Tween-80
[14] = dose: 200.0 mg/kg/injection, schedule: Q04DX003 (ip), vehicle: saline with Tween-80
[15] = dose: 100.0 mg/kg/injection, schedule: Q01DX009 (ip), vehicle: saline with Tween-80
[16] = dose: 200.0 mg/kg/injection, schedule: Q01DX009 (ip), vehicle: saline with Tween-80
[17] = dose: 50.0 mg/kg/injection, schedule: Q01DX009 (ip), vehicle: saline with Tween-80
[18] = dose: 3.13 mg/kg/injection, schedule: Q01DX009 (ip), vehicle: saline with Tween-80
[19] = dose: 60.0 mg/kg/injection, schedule: Q01DX005 (ip), vehicle: saline with Tween-80
[20] = dose: 120.0 mg/kg/injection, schedule: Q01DX005 (ip), vehicle: saline with Tween-80
[21] = dose: 240.0 mg/kg/injection, schedule: Q01DX005 (ip), vehicle: saline with Tween-80

COc1ccc(C(=O)NC(c2ccccc2)c2cccs2)cc1 (stereo unspecified)
T/C (dose: 100.0 mg/kg/injection, schedule: Q01DX001 (ip), vehicle: Klucel (hydroxypropylcellulose) (HPC)): 113 % of control
T/C (dose: 200.0 mg/kg/injection, schedule: Q01DX001 (ip), vehicle: Klucel (hydroxypropylcellulose) (HPC)): 104 % of control
T/C (dose: 400.0 mg/kg/injection, schedule: Q01DX001 (ip), vehicle: Klucel (hydroxypropylcellulose) (HPC)): 109 % of control

Cc1ccc(S(=O)(=O)NCC(Cl)C#N)cc1 (stereo unspecified)
T/C [1]: 105 % of control
T/C [2]: 106 % of control
T/C [3]: 103 % of control
T/C (dose: 400.0 mg/kg/injection, schedule: Q01DX005 (ip), vehicle: Klucel (hydroxypropylcellulose) (HPC)): 102 % of control

CCOC(CN/C(=C/c1ccc2ccccc2[n+]1C)SC)OCC
T/C (dose: 15.0 mg/kg/injection, schedule: Q01DX005 (ip), vehicle: saline with Tween-80): 117 % of control
T/C (dose: 30.0 mg/kg/injection, schedule: Q01DX005 (ip), vehicle: saline with Tween-80): 121 % of control

CCOC(=O)c1ccc(N2C(=O)C3C4C=CC(O4)C3C2=O)cc1 (stereo unspecified)
T/C (dose: 100.0 mg/kg/injection, schedule: Q04DX003 (ip), vehicle: Klucel (hydroxypropylcellulose) (HPC)): 112 % of control
T/C (dose: 200.0 mg/kg/injection, schedule: Q04DX003 (ip), vehicle: Klucel (hydroxypropylcellulose) (HPC)): 105 % of control
T/C (dose: 400.0 mg/kg/injection, schedule: Q04DX003 (ip), vehicle: Klucel (hydroxypropylcellulose) (HPC)): 111 % of control

CCCCCCCCCCCCNc1ncnc2[nH]ncc12
T/C [4]: 102 % of control
T/C [5]: 98 % of control
T/C [6]: 98 % of control

CC1CN1C(=O)c1cc(C(=O)N2CC2C)cc(C(=O)N2CC2C)c1 (stereo unspecified)
T/C [7]: 113 % of control

C/C([O-])=c1\c(C)nn2ccc[n+]12
T/C [8]: 100 % of control
T/C [4]: 108 % of control
T/C [5]: 96 % of control
T/C [6]: 99 % of control

CCC[C@@H](O)CC(=O)N[C@@H](CO)c1ccccc1
T/C [9]: 96 % of control
T/C [10]: 95 % of control
T/C (dose: 240.0 mg/kg/injection, schedule: Q01DX005 (ip), vehicle: saline): 96 % of control

CN(C)CCC(=O)Nc1nc(-c2ccc(Cl)cc2)cs1
T/C [4]: 102 % of control
T/C [5]: 92 % of control
T/C [6]: 96 % of control

CCN(CC)CCCC(C)NCCCN (stereo unspecified)
T/C [11]: 100 % of control
T/C [12]: 90 % of control

CC(C)N(C(=S)/N=C1/SCS(=O)(=O)N1C)C(C)C
T/C (dose: 50.0 mg/kg/injection, schedule: Q04DX003 (ip), vehicle: saline with Tween-80): 101 % of control
T/C [13]: 104 % of control
T/C [14]: 104 % of control

CC(C)N(Cc1ccccc1)S(=O)(=O)c1n[nH]c(C(C)(C)C)n1
T/C [4]: 94 % of control
T/C [5]: 86 % of control

CSCCCNC(=O)c1csc(CCNC(=O)c2ccccc2)n1
T/C [15]: 104 % of control
T/C [16]: 109 % of control
T/C (dose: 400.0 mg/kg/injection, schedule: Q01DX009 (ip), vehicle: saline with Tween-80): 104 % of control

CCCCCCCCCCCC(=O)N(CCOC(=O)c1ccccc1)CCOC(=O)c1ccccc1
T/C [17]: 101 % of control
T/C [15]: 93 % of control
T/C [16]: 107 % of control

C#CCNC(=S)N/N=C(\C)c1ccccn1
T/C [18]: 97 % of control
T/C [7]: 97 % of control
T/C (dose: 12.5 mg/kg/injection, schedule: Q01DX009 (ip), vehicle: saline with Tween-80): 103 % of control

O=C1OC2C(O)C(N(O)c3ccccc3)OC2[C@@H]1O (stereo partly specified)
T/C [19]: 100 % of control
T/C [20]: 106 % of control
T/C [21]: 106 % of control

O=[N+]([O-])c1ccc(-c2nc3ncncc3[nH]2)cc1
T/C (dose: 6.25 mg/kg/injection, schedule: Q01DX009 (ip), vehicle: Klucel (hydroxypropylcellulose) (HPC)): 107 % of control
T/C (dose: 12.5 mg/kg/injection, schedule: Q01DX009 (ip), vehicle: Klucel (hydroxypropylcellulose) (HPC)): 99 % of control

CC(=O)O.CC(=O)O.CC(=O)O.CC(=O)O.[Cu].[Cu]
T/C (dose: 6.25 mg/kg/injection, schedule: Q04DX002 (ip), vehicle: Klucel (hydroxypropylcellulose) (HPC)): 91 % of control
T/C (dose: 12.5 mg/kg/injection, schedule: Q04DX002 (ip), vehicle: Klucel (hydroxypropylcellulose) (HPC)): 100 % of control

COc1cc(N=Nc2ccc([N+](=O)[O-])cc2)ccc1N(CCCl)CCCl
T/C [17]: 151 % of control
T/C [15]: 153 % of control and 156 % of control
T/C [16]: 168 % of control and 201 % of control

CC(=O)NC1=C(C#N)CCCC1
T/C [11]: 101 % of control
T/C [12]: 104 % of control
T/C (dose: 400.0 mg/kg/injection, schedule: Q04DX003 (ip), vehicle: saline): 100 % of control

CCCCN1C(=O)C(=O)N(c2ccccc2)C1=O
T/C [19]: 102 % of control
T/C [20]: 102 % of control
T/C [21]: 94 % of control

CN(C)c1nc(-c2ccccc2)c(Cc2ccccc2)c(=O)o1
T/C [19]: 99 % of control
T/C [20]: 92 % of control
T/C [21]: 89 % of control

C/C=C(\C)C(=O)N/N=C/c1cccc(OC)c1O
T/C [1]: 95 % of control
T/C [2]: 92 % of control
T/C [3]: 96 % of control

CCN(CC)CCOc1ccccc1C(C)=O
T/C [8]: 93 % of control
T/C [4]: 99 % of control

S=c1[nH]ccs1
T/C (dose: 12.5 mg/kg/injection, schedule: Q01DX009 (ip), vehicle: water): 99 % of control
T/C (dose: 25.0 mg/kg/injection, schedule: Q01DX009 (ip), vehicle: water): 99 % of control
T/C (dose: 50.0 mg/kg/injection, schedule: Q01DX009 (ip), vehicle: water): 95 % of control

Cc1cc(C)c(N(C)C)c(C)c1
T/C (dose: 100.0 mg/kg/injection, schedule: Q04DX002 (ip), vehicle: saline with Tween-80): 109 % of control
T/C (dose: 200.0 mg/kg/injection, schedule: Q04DX002 (ip), vehicle: saline with Tween-80): 110 % of control

COc1cccc(N2C(=O)CSC2=S)c1
T/C [13]: 95 % of control
T/C [14]: 100 % of control
T/C (dose: 400.0 mg/kg/injection, schedule: Q04DX003 (ip), vehicle: saline with Tween-80): 90 % of control

CCc1c(-c2ccc(Cl)cc2)nc(N)nc1-c1nc(N)nc(-c2ccc(Cl)cc2)c1CC
T/C [9]: 100 % of control
T/C [10]: 100 % of control

O=C1c2ccc(Cl)cc2OCCC1CN1CCCCC1 (stereo unspecified)
T/C [11]: 100 % of control
T/C [12]: 103 % of control

CCC1(CC)C(=O)N(C)P(=O)(Oc2ccccc2)N(C)C1=O
T/C (dose: 100.0 mg/kg/injection, schedule: Q04DX002 (ip), vehicle: saline): 100 % of control
T/C (dose: 200.0 mg/kg/injection, schedule: Q04DX002 (ip), vehicle: saline): 103 % of control
T/C (dose: 400.0 mg/kg/injection, schedule: Q04DX002 (ip), vehicle: saline): 101 % of control

Cc1nc2c(sc3ccccc3n2C)c2nc3c(sc4ccccc4n3C)c(C)c12
T/C [4]: 92 % of control
T/C [5]: 90 % of control
T/C [6]: 86 % of control

COc1ccc(S(=O)(=O)N/N=C\c2cc([N+](=O)[O-])cc([N+](=O)[O-])c2O)cc1OC
T/C [4]: 99 % of control
T/C [5]: 100 % of control
T/C [6]: 99 % of control

CCCSc1ncnc2nc(C)[nH]c12
T/C (dose: 0.39 mg/kg/injection, schedule: Q01DX009 (ip), vehicle: saline with Tween-80): 95 % of control
T/C (dose: 0.78 mg/kg/injection, schedule: Q01DX009 (ip), vehicle: saline with Tween-80): 92 % of control
T/C (dose: 1.56 mg/kg/injection, schedule: Q01DX009 (ip), vehicle: saline with Tween-80): 98 % of control
T/C [18]: 94 % of control

C/C(=N/NC(N)=S)c1ccc2ccccc2c1
T/C (dose: 0.75 mg/kg/injection, schedule: Q01DX009 (ip), vehicle: saline with Tween-80): 109 % of control
T/C (dose: 1.5 mg/kg/injection, schedule: Q01DX009 (ip), vehicle: saline with Tween-80): 110 % of control
T/C (dose: 3.0 mg/kg/injection, schedule: Q01DX009 (ip), vehicle: saline with Tween-80): 108 % of control
T/C (dose: 5.33 mg/kg/injection, schedule: Q01DX009 (ip), vehicle: saline with Tween-80): 117 % of control
T/C (dose: 6.0 mg/kg/injection, schedule: Q01DX009 (ip), vehicle: saline with Tween-80): 121 % of control
